The results in this text go back to ChEMBL document CHEMBL4651402, “Screening of ~5500 FDA-approved drugs and clinical candidates for anti-SARS-CoV-2 activity” (2021).

pIC50: −log10 of the molar value.

The term pIC50 denotes −log10 of the IC50, conventionally taken in molar units. A lower pIC50 goes with a large IC50.

One experiment relates to SARS-CoV-2. The experiment in a line: microbe, parasite or virus in culture. The settings on record: Severe acute respiratory syndrome coronavirus 2, Vero C1008, 48 h.
`CC12C=CC(=O)C=C1CCC1C2C(=O)CC2(C)C1CC[C@]2(O)C(=O)CO` (some centres undefined): the pIC50 was below 4.70.

Molecule `CS(=N)(=O)CC[C@H](N)C(=O)O` (some centres undefined) gave a pIC50 below 4.70.

`Nc1nc(O)c2ncn(CCC(CO)CO)c2n1` [PENCICLOVIR] showed a pIC50 below 4.70.

The molecule `CC(=O)OC(C)C[N+](C)(C)C` (centres undefined) [METHACHOLINE] had a pIC50 below 4.70.

Molecule `Cc1cccc(C)c1NC(=O)CN1CCCC1` [PYRROCAINE] gave a pIC50 below 4.70.

For `Oc1c(Cl)cc(Cl)cc1Sc1cc(Cl)cc(Cl)c1O` [BITHIONOL], the pIC50 was below 4.70.

Consider `Cc1ncc(CO)c(CN)c1O` [PYRIDOXAMINE], for which the pIC50 is below 4.70.

On to `CC(C)(C)C#Cc1cc(N(C(=O)[C@H]2CC[C@H](C)CC2)[C@H]2CC[C@@H](O)CC2)c(C(=O)O)s1`, for which the pIC50 is below 4.70.

Take `C#Cc1cccc(Nc2ncnc3cc4c(cc23)OCCOCCOCCO4)c1` [ICOTINIB]: the negative-log IC50 (pIC50) was below 4.70.

`OC[C@@H](O)[C@@H](O[C@@H]1O[C@H](CO)[C@H](O)[C@H](O)[C@H]1O)[C@H](O)[C@@H](O)CO` [LACTITOL] showed a pIC50 below 4.70.

`c1ccc2c(c1)[nH]c1cnccc12` [NORHARMANE]: the pIC50 was below 4.70.

`Clc1ccc(Nc2nnc(Cc3ccncc3)c3ccccc23)cc1` [VATALANIB] showed a pIC50 below 4.70.

For `Cc1noc(NS(=O)(=O)c2ccc(N)cc2)c1C` [SULFISOXAZOLE], the pIC50 was below 4.70.

Regarding `COC(=O)C1=C(C)NC(C)=C(C(=O)O[C@@H]2CCN(Cc3ccccc3)C2)[C@H]1c1cccc([N+](=O)[O-])c1`, the pIC50 is below 4.70.

In the case of `NCC1CCC(C(=O)Oc2ccc(CCC(=O)O)cc2)CC1` (centres undefined), the pIC50 was below 4.70.

The molecule `O=C(N/N=C/c1ccccc1O)c1ccncc1` [SALINAZID] had a negative-log IC50 (pIC50) below 4.70.

On to `O=c1[nH]cnc2nc[nH]c12` [HYPOXANTHINE], for which the negative logarithm of the IC50 (pIC50) is below 4.70.

Take `Cc1ccc(/C=C/C(=O)NCCCCN2CCN(C(c3ccccc3)c3ccccc3)CC2)cn1` [TAGORIZINE]: the pIC50 was below 4.70.

Molecule `Nc1c2c(nc3ccccc13)CCCC2O` (centres undefined) [VELNACRINE] showed a pIC50 below 4.70.

Regarding `Cc1ccnc2c1CCCC2C(N)=S` (centres undefined) [ISOTIQUIMIDE], the pIC50 was below 4.70.

Take `CC(C)(C)NCC(O)COc1ccc(NC(=O)NC2CCCCC2)cc1` (centres undefined) [TALINOLOL]: the pIC50 is below 4.70.

For the molecule `CC1NCCc2c1[nH]c1ccccc21` (centres undefined) [TETRAHYDROHARMAN], the pIC50 was below 4.70.

`CC(=O)[C@H]1CC[C@H]2[C@@H]3CC=C4C[C@@H](O)CC[C@]4(C)[C@H]3CC[C@]12C` [PREGNENOLONE] had a pIC50 below 4.70.

Regarding `CCC1(CC)C(=O)NC(=O)N(C)C1=O` [METHARBITAL], the pIC50 was below 4.70.

The molecule `C[C@]12CCC(=O)C=C1CC[C@@H]1[C@@H]2C(=O)C[C@]2(C)C(=O)CC[C@@H]12` [ADRENOTERONE] had a negative logarithm of the IC50 (pIC50) below 4.70.

As to `NC(=O)OCC(COC(N)=O)c1ccccc1` [FELBAMATE], the pIC50 is below 4.70.

Take `CCOc1ccc(-c2ccc(Cn3c(CC(C)(C)C(=O)O)c(SC(C)(C)C)c4cc(OCc5ccc(C)cn5)ccc43)cc2)cn1` [FIBOFLAPON]: the pIC50 is below 4.70.

Turning to `ClC1C(Cl)C(Cl)C(Cl)C(Cl)C1Cl` (centres undefined), the pIC50 is below 4.70.

`COc1ccc2c3c1O[C@H]1[C@@H](O)C=C[C@H]4C(C2)N(C)CCC341` (some centres undefined) had a pIC50 below 4.70.

`C/C=C(\C)C(=O)O[C@@H]1c2c(ccc3ccc(=O)oc23)OC(C)(C)[C@@H]1OC(C)=O` [PTERYXIN] showed a pIC50 below 4.70.

With `O=C1c2ccccc2CN2C(=O)c3ccccc3CN12` [DIFTALONE], the pIC50 is below 4.70.

With `CC(C)(C)NC(=O)c1ccc(Oc2cc(F)c(CC(=O)O)cc2Cl)c(NS(=O)(=O)c2ccc(C3CC3)cc2Cl)c1` [VIDUPIPRANT], the pIC50 was below 4.70.

Staying with this experiment, now noted: Severe acute respiratory syndrome coronavirus 2, Vero C1008, 48 h, read-out: pIC50 (converted).
With `CC12C=CC(=O)C=C1CCC1C2C(=O)CC2(C)C1CC[C@]2(O)C(=O)CO` (some centres undefined), the IC50 is above 20 µM.

With `CS(=N)(=O)CC[C@H](N)C(=O)O` (some centres undefined), the IC50 is above 20 µM.

For the molecule `Nc1nc(O)c2ncn(CCC(CO)CO)c2n1` [PENCICLOVIR], the IC50 is above 20 µM.

For `CC(=O)OC(C)C[N+](C)(C)C` (centres undefined) [METHACHOLINE], the IC50 is above 20 µM.

In the case of `Cc1cccc(C)c1NC(=O)CN1CCCC1` [PYRROCAINE], the IC50 was above 20 µM.

Turning to `Oc1c(Cl)cc(Cl)cc1Sc1cc(Cl)cc(Cl)c1O` [BITHIONOL], the IC50 was above 20 µM.

As for `Cc1ncc(CO)c(CN)c1O` [PYRIDOXAMINE], the IC50 was above 20 µM.

Consider `CC(C)(C)C#Cc1cc(N(C(=O)[C@H]2CC[C@H](C)CC2)[C@H]2CC[C@@H](O)CC2)c(C(=O)O)s1`, for which the IC50 was above 20 µM.

Take `C#Cc1cccc(Nc2ncnc3cc4c(cc23)OCCOCCOCCO4)c1` [ICOTINIB]: the IC50 was above 20 µM.

Regarding `OC[C@@H](O)[C@@H](O[C@@H]1O[C@H](CO)[C@H](O)[C@H](O)[C@H]1O)[C@H](O)[C@@H](O)CO` [LACTITOL], the IC50 was above 20 µM.

For `c1ccc2c(c1)[nH]c1cnccc12` [NORHARMANE], the IC50 was above 20 µM.

Regarding `Clc1ccc(Nc2nnc(Cc3ccncc3)c3ccccc23)cc1` [VATALANIB], the IC50 was above 20 µM.

As to `Cc1noc(NS(=O)(=O)c2ccc(N)cc2)c1C` [SULFISOXAZOLE], the IC50 was above 20 µM.

Turning to `COC(=O)C1=C(C)NC(C)=C(C(=O)O[C@@H]2CCN(Cc3ccccc3)C2)[C@H]1c1cccc([N+](=O)[O-])c1`, the IC50 is above 20 µM.

As for `NCC1CCC(C(=O)Oc2ccc(CCC(=O)O)cc2)CC1` (centres undefined), the IC50 was above 20 µM.

Regarding `O=C(N/N=C/c1ccccc1O)c1ccncc1` [SALINAZID], the IC50 is above 20 µM.

Consider `O=c1[nH]cnc2nc[nH]c12` [HYPOXANTHINE], for which the IC50 was above 20 µM.

As for `Cc1ccc(/C=C/C(=O)NCCCCN2CCN(C(c3ccccc3)c3ccccc3)CC2)cn1` [TAGORIZINE], the IC50 is above 20 µM.

On to `Nc1c2c(nc3ccccc13)CCCC2O` (centres undefined) [VELNACRINE], for which the IC50 is above 20 µM.

In the case of `Cc1ccnc2c1CCCC2C(N)=S` (centres undefined) [ISOTIQUIMIDE], the IC50 was above 20 µM.

`CC(C)(C)NCC(O)COc1ccc(NC(=O)NC2CCCCC2)cc1` (centres undefined) [TALINOLOL]: the IC50 was above 20 µM.

In the case of `CC1NCCc2c1[nH]c1ccccc21` (centres undefined) [TETRAHYDROHARMAN], the IC50 was above 20 µM.

On to `CC(=O)[C@H]1CC[C@H]2[C@@H]3CC=C4C[C@@H](O)CC[C@]4(C)[C@H]3CC[C@]12C` [PREGNENOLONE], for which the IC50 was above 20 µM.

`CCC1(CC)C(=O)NC(=O)N(C)C1=O` [METHARBITAL]: the IC50 is above 20 µM.

With `C[C@]12CCC(=O)C=C1CC[C@@H]1[C@@H]2C(=O)C[C@]2(C)C(=O)CC[C@@H]12` [ADRENOTERONE], the IC50 is above 20 µM.

Take `NC(=O)OCC(COC(N)=O)c1ccccc1` [FELBAMATE]: the IC50 is above 20 µM.

Consider `CCOc1ccc(-c2ccc(Cn3c(CC(C)(C)C(=O)O)c(SC(C)(C)C)c4cc(OCc5ccc(C)cn5)ccc43)cc2)cn1` [FIBOFLAPON], for which the IC50 was above 20 µM.

Regarding `ClC1C(Cl)C(Cl)C(Cl)C(Cl)C1Cl` (centres undefined), the IC50 is above 20 µM.

With `COc1ccc2c3c1O[C@H]1[C@@H](O)C=C[C@H]4C(C2)N(C)CCC341` (some centres undefined), the IC50 is above 20 µM.

As to `C/C=C(\C)C(=O)O[C@@H]1c2c(ccc3ccc(=O)oc23)OC(C)(C)[C@@H]1OC(C)=O` [PTERYXIN], the IC50 was above 20 µM.

In the case of `O=C1c2ccccc2CN2C(=O)c3ccccc3CN12` [DIFTALONE], the IC50 is above 20 µM.

Consider `CC(C)(C)NC(=O)c1ccc(Oc2cc(F)c(CC(=O)O)cc2Cl)c(NS(=O)(=O)c2ccc(C3CC3)cc2Cl)c1` [VIDUPIPRANT], for which the IC50 is above 20 µM.
